The source of these data is PubChem BioAssay AID256 (DTP/NCI, 2004).

This test has as its system CD2F1 mice, L1210 leukemia ip, survival T/C. Briefly: NCI In Vivo Anticancer Drug Screen. Data for tumor model L1210 Leukemia (intraperitoneal) in CD2F1 (CDF1) mice. Particulars: higher = longer survival. The method, boiled down:
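Activity against a transplanted murine tumor was judged by comparing the compound group with a vehicle group. The outcome in the treated animals was divided by that in the controls.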

The mark [1] stands for this setting: endpoint: mean survival time, dose: 50.0 mg/kg/injection, schedule: Q01DX009 (ip), vehicle: saline with Tween-80.
[2] abbreviates: endpoint: mean survival time, dose: 100.0 mg/kg/injection, schedule: Q01DX009 (ip), vehicle: saline with Tween-80.
Setting [3] is: endpoint: mean survival time, dose: 100.0 mg/kg/injection, schedule: Q04DX003 (ip), vehicle: saline with Tween-80.
The mark [4] stands for this setting: endpoint: mean survival time, dose: 200.0 mg/kg/injection, schedule: Q01DX009 (ip), vehicle: saline with Tween-80.
[5] abbreviates: endpoint: mean survival time, dose: 200.0 mg/kg/injection, schedule: Q04DX003 (ip), vehicle: saline with Tween-80.
Where [6] appears, read: endpoint: mean survival time, dose: 400.0 mg/kg/injection, schedule: Q04DX003 (ip), vehicle: saline with Tween-80.
Where [7] appears, read: endpoint: mean survival time, dose: 100.0 mg/kg/injection, schedule: Q01DX001 (ip), vehicle: saline with Tween-80.
Where [8] appears, read: endpoint: mean survival time, dose: 200.0 mg/kg/injection, schedule: Q01DX001 (ip), vehicle: saline with Tween-80.

Inconclusive results and toxic doses are left out.

In the case of `Cc1cn(C2CC(O)C(CO)O2)c(=O)nc1N1CCCCCCC1` (centres undefined), the T/C was 102 % of control (endpoint: median survival time, dose: 12.5 mg/kg/injection, schedule: Q01DX005 (ip), vehicle: water); 102 % of control (endpoint: median survival time, dose: 25.0 mg/kg/injection, schedule: Q01DX005 (ip), vehicle: water); 102 % of control (endpoint: median survival time, dose: 50.0 mg/kg/injection, schedule: Q01DX005 (ip), vehicle: water); 102 % of control (endpoint: median survival time, dose: 100.0 mg/kg/injection, schedule: Q01DX005 (ip), vehicle: water); 103 % of control (endpoint: median survival time, dose: 200.0 mg/kg/injection, schedule: Q01DX005 (ip), vehicle: water).

Regarding `O=C(OC1C=CC2CCC1C2)c1ccc([N+](=O)[O-])cc1` (centres undefined), the T/C was 98 % of control under setting [1]; 94 % of control under setting [2]; 87 % of control under setting [3]; 93 % of control under setting [4]; 87 % of control under setting [5].

For `COc1nc(NC2OCC(O)C(O)C2O)c(I)c(=O)n1C` (centres undefined), the T/C (endpoint: median survival time, dose: 12.5 mg/kg/injection, schedule: Q01DX005 (ip), vehicle: saline with Tween-80) is 101 % of control; the T/C (endpoint: median survival time, dose: 25.0 mg/kg/injection, schedule: Q01DX005 (ip), vehicle: saline with Tween-80) is 100 % of control; the T/C (endpoint: median survival time, dose: 50.0 mg/kg/injection, schedule: Q01DX005 (ip), vehicle: saline with Tween-80) is 100 % of control; the T/C (endpoint: median survival time, dose: 100.0 mg/kg/injection, schedule: Q01DX005 (ip), vehicle: saline with Tween-80) was 101 % of control; the T/C (endpoint: median survival time, dose: 200.0 mg/kg/injection, schedule: Q01DX005 (ip), vehicle: saline with Tween-80) was 100 % of control.

`Cc1cn(C2CC(O)C(CO)O2)c(=O)nc1NCCc1c[nH]c2ccccc12` (centres undefined): the T/C was 103 % of control (endpoint: median survival time, dose: 12.5 mg/kg/injection, schedule: Q01DX005 (ip), vehicle: distilled water + Tween-80); 103 % of control (endpoint: median survival time, dose: 25.0 mg/kg/injection, schedule: Q01DX005 (ip), vehicle: distilled water + Tween-80); 102 % of control (endpoint: median survival time, dose: 50.0 mg/kg/injection, schedule: Q01DX005 (ip), vehicle: distilled water + Tween-80); 103 % of control (endpoint: median survival time, dose: 100.0 mg/kg/injection, schedule: Q01DX005 (ip), vehicle: distilled water + Tween-80); 102 % of control (endpoint: median survival time, dose: 200.0 mg/kg/injection, schedule: Q01DX005 (ip), vehicle: distilled water + Tween-80).

Take `CCCCC1CCCCC1`: the T/C by setting is: under setting [3], 95 % of control; under setting [5], 100 % of control; under setting [6], 90 % of control.

As to `O=C(NCCCCC(NC(=O)OCc1ccccc1)C(=O)ON1C(=O)CCC1=O)OCc1ccccc1` (centres undefined), the T/C was 96 % of control (endpoint: mean survival time, dose: 12.5 mg/kg/injection, schedule: Q01DX009 (ip), vehicle: other); 86 % of control (endpoint: mean survival time, dose: 25.0 mg/kg/injection, schedule: Q01DX009 (ip), vehicle: other); 90 % of control (endpoint: mean survival time, dose: 50.0 mg/kg/injection, schedule: Q01DX009 (ip), vehicle: other); 94 % of control (endpoint: mean survival time, dose: 100.0 mg/kg/injection, schedule: Q01DX009 (ip), vehicle: other); 97 % of control (endpoint: mean survival time, dose: 200.0 mg/kg/injection, schedule: Q01DX009 (ip), vehicle: other).

Take `CC(=O)OC1OC(CO)C(OC(C)=O)C(OC(C)=O)C1OC(C)=O` (centres undefined): the T/C reads like this: (endpoint: mean survival time, dose: 100.0 mg/kg/injection, schedule: Q01DX009 (ip), vehicle: saline sonified) 97 % of control; (endpoint: mean survival time, dose: 200.0 mg/kg/injection, schedule: Q01DX009 (ip), vehicle: saline sonified) 97 % of control; (endpoint: mean survival time, dose: 400.0 mg/kg/injection, schedule: Q01DX009 (ip), vehicle: saline sonified) 98 % of control.

As for `CC(NC(=O)CNC(=O)CNC(=O)OCc1ccccc1)C(=O)OCc1ccccc1` (centres undefined), the T/C was 97 % of control under setting [3], 99 % of control under setting [5] and 101 % of control under setting [6].

For `c1cc2c(c(N3CCNCC3)c1)CCCC2`, the T/C by setting is: under setting [7], 110 % of control; under setting [8], 95 % of control.

As to `O=C1CCc2ccsc21`, the T/C is 98 % of control (endpoint: mean survival time, dose: 25.0 mg/kg/injection, schedule: Q04DX002 (ip), vehicle: saline with Tween-80); 91 % of control (endpoint: mean survival time, dose: 50.0 mg/kg/injection, schedule: Q04DX002 (ip), vehicle: saline with Tween-80); 106 % of control (endpoint: mean survival time, dose: 100.0 mg/kg/injection, schedule: Q04DX002 (ip), vehicle: saline with Tween-80).

Take `CC1=NN(c2ccc(S(=O)(=O)O)cc2)C(=O)C1`: the T/C is, setting by setting: under setting [2], 93 % of control; under setting [3], 96 % of control; under setting [4], 87 % of control; under setting [5], 104 % of control; under setting [6], 98 % of control.

On to `Nc1nc2c(c(=O)[nH]1)N(CCCCCO)C(CNc1ccc(C(=O)NC(CCC(=O)O)C(=O)O)cc1)CN2` (centres undefined), for which the T/C is 97 % of control (endpoint: mean survival time, dose: 100.0 mg/kg/injection, schedule: Q01DX001 (ip), vehicle: saline); 103 % of control (endpoint: mean survival time, dose: 200.0 mg/kg/injection, schedule: Q01DX001 (ip), vehicle: saline); 97 % of control (endpoint: mean survival time, dose: 400.0 mg/kg/injection, schedule: Q01DX001 (ip), vehicle: saline).

For the compound `CSCCC(C)(C)C`, under “endpoint: mean survival time, dose: 75.0 mg/kg/injection, schedule: Q01DX001 (ip), vehicle: saline”, the T/C is 103 % of control.

Take `COc1ccc(OC)c(/C=C/c2cnnc3ccccc23)c1`: the T/C (endpoint: mean survival time, dose: 18.75 mg/kg/injection, schedule: Q04DX003 (ip), vehicle: Klucel (hydroxypropylcellulose) (HPC)) was 102 % of control; the T/C (endpoint: mean survival time, dose: 37.5 mg/kg/injection, schedule: Q04DX003 (ip), vehicle: Klucel (hydroxypropylcellulose) (HPC)) was 104 % of control; the T/C (endpoint: mean survival time, dose: 75.0 mg/kg/injection, schedule: Q04DX003 (ip), vehicle: Klucel (hydroxypropylcellulose) (HPC)) was 114 % of control; the T/C (endpoint: mean survival time, dose: 150.0 mg/kg/injection, schedule: Q04DX003 (ip), vehicle: Klucel (hydroxypropylcellulose) (HPC)) was 104 % of control; the T/C (endpoint: mean survival time, dose: 300.0 mg/kg/injection, schedule: Q04DX003 (ip), vehicle: Klucel (hydroxypropylcellulose) (HPC)) was 108 % of control.

On to `CCC1=NNC(=O)C1(Br)Br`, for which the T/C was 100 % of control (endpoint: mean survival time, dose: 12.5 mg/kg/injection, schedule: Q04DX003 (ip), vehicle: saline with Tween-80); 102 % of control (endpoint: mean survival time, dose: 25.0 mg/kg/injection, schedule: Q04DX003 (ip), vehicle: saline with Tween-80); 105 % of control (endpoint: mean survival time, dose: 50.0 mg/kg/injection, schedule: Q04DX003 (ip), vehicle: saline with Tween-80).

`COC(=O)/C=C/N(Cc1ccccc1)Cc1ccccc1`: the T/C is 98 % of control under setting [3], 96 % of control under setting [5] and 94 % of control under setting [6].

Consider `COCCOCCOc1cc(-c2c(OCCOCCOC)ccc3ccccc23)c2ccccc2c1`, for which the T/C is 100 % of control under setting [7]; 100 % of control under setting [8]; 100 % of control (endpoint: mean survival time, dose: 400.0 mg/kg/injection, schedule: Q01DX001 (ip), vehicle: saline with Tween-80).

`CCN1CCC(C(C)(C)C)CC1`: under “endpoint: mean survival time, dose: 100.0 mg/kg/injection, schedule: Q01DX001 (ip), vehicle: acetone”, the T/C is 102 % of control.

As for `CC(=O)Nc1ccc(CN(C)N=Nc2ccc(C(=O)O)cc2)cc1`, the T/C runs as follows: (endpoint: mean survival time, dose: 25.0 mg/kg/injection, schedule: Q01DX009 (ip), vehicle: water) 95 % of control; (endpoint: mean survival time, dose: 50.0 mg/kg/injection, schedule: Q01DX009 (ip), vehicle: water) 97 % of control; (endpoint: mean survival time, dose: 100.0 mg/kg/injection, schedule: Q01DX009 (ip), vehicle: water) 106 % of control; (endpoint: mean survival time, dose: 200.0 mg/kg/injection, schedule: Q01DX009 (ip), vehicle: water) 86 % of control; (endpoint: mean survival time, dose: 400.0 mg/kg/injection, schedule: Q01DX009 (ip), vehicle: water) 95 % of control.

Consider `CC(=O)OCC1OC(N=C=S)C(OC(C)=O)C(OC(C)=O)C1OC(C)=O` (centres undefined), for which the T/C under setting [1] is 115 % of control.

`COC(=O)c1cccc2c1/C(=N/NC(N)=S)c1ccccc1-2`: the T/C is 102 % of control (endpoint: mean survival time, dose: 50.0 mg/kg/injection, schedule: Q01DX001 (ip), vehicle: carboxymethylcellulose (CMC)); 98 % of control (endpoint: mean survival time, dose: 100.0 mg/kg/injection, schedule: Q01DX001 (ip), vehicle: carboxymethylcellulose (CMC)); 102 % of control (endpoint: mean survival time, dose: 200.0 mg/kg/injection, schedule: Q01DX001 (ip), vehicle: carboxymethylcellulose (CMC)); 102 % of control (endpoint: mean survival time, dose: 400.0 mg/kg/injection, schedule: Q01DX001 (ip), vehicle: carboxymethylcellulose (CMC)).

Consider `CC(=O)CSc1ncnc2nc[nH]c12`, for which the T/C was 118 % of control (endpoint: mean survival time, dose: 62.5 mg/kg/injection, schedule: Q01DX015 (ip), vehicle: saline); 122 % of control (endpoint: mean survival time, dose: 250.0 mg/kg/injection, schedule: Q01DX015 (ip), vehicle: saline); 150 % of control (endpoint: mean survival time, dose: 1000.0 mg/kg/injection, schedule: Q01DX015 (ip), vehicle: saline).

For the compound `CC/C(=N/O)C(N)=O`, the T/C under setting [3] is 100 % of control, the T/C under setting [5] was 103 % of control and the T/C under setting [6] was 105 % of control.
